Target: human autotaxin (ATX) (Homo sapiens (Human), UniProt Q13822)
Assay: Human Autotaxin Assay
Format: biochemical
Settings: concentrated conditioned media from Hep3B cells; LPC substrate, choline release
Outline: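 Autotaxin source: Hep3B conditioned medium concentrated 20-fold, preincubated with compound 15 min at 37° C in lyso-PLD buffer (100 mM Tris pH 9, 500 mM NaCl, 5 mM MgCl2, 5 mM CaCl2, 0.05% Triton X-100, ±0.2% fatty-acid-free HSA). 100 uM LPC (14:0) then added, 1.5-3 hours at 37° C; choline release measured.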

Cc1c(Sc2cccc(C(=O)O)c2)c2ccc(Cl)c(F)c2n1CC(=O)N1CC(C)(O)C1 [Compound 1-52, 3-((6-Chloro-7-fluoro-1-(2-(3-hydroxy-3-methylazetidin-1-yl)-2-oxoethyl)-2-methyl-1H-indol-3-yl)thio)benzoic acid]
IC50: ≤ 500 nM

Cc1c(Sc2cccc(C(=O)O)c2)c2ccc(Cl)c(F)c2n1CC(=O)Nc1cc(Cl)cc(Cl)c1 [Compound 1-4, 3-((6-Chloro-1-(2-((3,5-dichlorophenyl)amino)-2-oxoethyl)-7-fluoro-2-methyl-1H-indol-3-yl)thio)benzoic acid]
IC50: > 3000 nM

Cc1c(Sc2cccc(C(=O)O)c2)c2ccc(Cl)c(F)c2n1CC(=O)N1CCC2(CCOCC2)C1 [Compound 1-46, 3-((6-Chloro-7-fluoro-2-methyl-1-(2-oxo-2-(8-oxa-2-azaspiro[4.5]decan-2-yl)ethyl)-1H-indol-3-yl)thio)benzoic acid]
IC50: ≤ 500 nM

Cc1c(Sc2cccc(C(=O)O)c2)c2ccc(Cl)c(F)c2n1CC(=O)N1CCCC2(CNC(=O)O2)C1 (stereo not shown) [Compound 1-69, 3-((6-Chloro-7-fluoro-2-methyl-1-(2-oxo-2-(2-oxo-1-oxa-3,7-diazaspiro[4.5]decan-7-yl)ethyl)-1H-indol-3-yl)thio)benzoic acid]
IC50: ≤ 500 nM

Cc1c(Sc2cccc(C(=O)O)c2)c2ccc(Cl)c(F)c2n1CC(=O)N1CCC(CCc2ccccc2)CC1 [Compound 1-62, 3-((6-Chloro-7-fluoro-2-methyl-1-(2-oxo-2-(4-phenethylpiperidin-1-yl)ethyl)-1H-indol-3-yl)thio)benzoic acid]
IC50: 500 to 3000 nM

Cc1c(Sc2cccc(C(=O)O)c2)c2ccc(Cl)c(F)c2n1CC(=O)N1CC2(CC2)c2ccccc21 [Compound 1-31, 3-((6-Chloro-7-fluoro-2-methyl-1-(2-oxo-2-(spiro[cyclopropane-1,3′-indolin]-1′-yl)ethyl)-1H-indol-3-yl)thio)benzoic acid]
IC50: ≤ 500 nM

Cc1c(Sc2cccc(C(=O)O)c2)c2ccc(Cl)c(F)c2n1CC(=O)N1CCC2(CC1)CC2C(=O)N1CCCC1 (stereo not shown) [Compound 1-40, 3-((6-Chloro-7-fluoro-2-methyl-1-(2-oxo-2-(1-(pyrrolidine-1-carbonyl)-6-azaspiro[2.5]octan-6-yl)ethyl)-1H-indol-3-yl)thio)benzoic acid]
IC50: 500 to 3000 nM

Cc1c(Sc2cccc(C(=O)O)c2)c2ccc(Cl)c(F)c2n1CC(=O)N1CC(N2CCC(F)(F)C2)C1 [Compound 1-42, 3-((6-Chloro-1-(2-(3-(3,3-difluoropyrrolidin-1-yl)azetidin-1-yl)-2-oxoethyl)-7-fluoro-2-methyl-1H-indol-3-yl)thio)benzoic acid]
IC50: ≤ 500 nM

Cc1c(Sc2cccc(C(=O)O)c2F)c2ccc(Cl)c(F)c2n1CC(=O)N1CCc2ccncc21 [Compound 2-60, 3-((6-Chloro-1-(2-(2,3-dihydro-1H-pyrrolo[2,3-c]pyridin-1-yl)-2-oxoethyl)-7-fluoro-2-methyl-1H-indol-3-yl)thio)-2-fluorobenzoic acid]
IC50: ≤ 500 nM

Cc1c(Sc2cccc(C(=O)O)c2)c2ccc(Cl)c(F)c2n1CC(=O)N1CCCC1=O [Compound 1-59, 3-((6-Chloro-7-fluoro-2-methyl-1-(2-oxo-2-(2-oxopyrrolidin-1-yl)ethyl)-1H-indol-3-yl)thio)benzoic acid]
IC50: 500 to 3000 nM

Cc1c(Sc2cccc(C(=O)O)n2)c2ccc(Cl)c(F)c2n1CC(=O)N1CCc2ccccc21 [Compound 2-3]
IC50: ≤ 500 nM

Cc1c(Sc2cccc(C(=O)O)c2)c2ccc(Cl)c(F)c2n1CC(=O)N1CCC2(CC1)CC(C#N)C2 [Compound 1-19, 3-((6-Chloro-1-(2-(2-cyano-7-azaspiro[3.5]nonan-7-yl)-2-oxoethyl)-7-fluoro-2-methyl-1H-indol-3-yl)thio)benzoic acid]
IC50: ≤ 500 nM

Cc1c(Sc2cccc(C(=O)O)c2)c2ccc(Cl)c(F)c2n1CC(=O)N1CCC2(CC1)CNC(=O)O2 [Compound 1-12]
IC50: ≤ 500 nM

Cc1c(Sc2cccc(C(=O)O)c2)c2ccc(Cl)c(F)c2n1CC(=O)N1CCC(CCc2ccccc2)C1 (stereo not shown) [Compound 1-76, 3-((6-Chloro-7-fluoro-2-methyl-1-(2-oxo-2-(3-phenethylpyrrolidin-1-yl)ethyl)-1H-indol-3-yl)thio)benzoic acid]
IC50: 500 to 3000 nM

Cc1c(Sc2cccc(C(=O)O)c2)c2ccc(Cl)c(F)c2n1CC(=O)N1CCC2(CCNC(=O)CC2)CC1 [Compound 1-53, 3-((6-Chloro-7-fluoro-2-methyl-1-(2-oxo-2-(10-oxo-3,9-diazaspiro[5.6]dodecan-3-yl)ethyl)-1H-indol-3-yl)thio)benzoic acid]
IC50: ≤ 500 nM

Cc1c(Sc2cccc(C(=O)O)c2)c2ccc(Cl)c(F)c2n1CC(=O)N1CC(N2CCS(=O)(=O)CC2)C1 [Compound 1-48, 3-((6-Chloro-1-(2-(3-(1,1-dioxidothiomorpholino)azetidin-1-yl)-2-oxoethyl)-7-fluoro-2-methyl-1H-indol-3-yl)thio)benzoic acid]
IC50: ≤ 500 nM

Cc1c(Sc2cccc(C(=O)O)c2)c2ccc(Cl)c(F)c2n1CC(=O)N1CCC(Cc2ccc(F)cc2)CC1 [Compound 1-60, 3-((6-Chloro-7-fluoro-1-(2-(4-(4-fluorobenzyl)piperidin-1-yl)-2-oxoethyl)-2-methyl-1H-indol-3-yl)thio)benzoic acid]
IC50: 500 to 3000 nM

O=C(O)c1cccc(Sc2c(Cl)n(CC(=O)N3CC4(CCC4)c4ccccc43)c3c(F)c(Cl)ccc23)c1F [Compound 4-121, Sodium 3-((2,6-dichloro-7-fluoro-1-(2-oxo-2-(spiro[cyclobutane-1,3′-indolin]-1′-yl)ethyl)-1H-indol-3-yl)thio)-2-fluorobenzoate]
IC50: ≤ 500 nM

Cc1c(Sc2cccc(C(=O)O)c2F)c2ccc(Cl)c(F)c2n1CC(=O)N1C[C@H](O)[C@@H](N(C)C)C1 [Compound 2-69, 3-((6-Chloro-1-(2-((3S,4S)-3-(dimethylamino)-4-hydroxypyrrolidin-1-yl)-2-oxoethyl)-7-fluoro-2-methyl-1H-indol-3-yl)thio)-2-fluorobenzoic acid]
IC50: ≤ 500 nM

Cc1c(Sc2cccc(C(=O)O)c2)c2ccc(Cl)c(F)c2n1CC(=O)N1CC(C)(C)c2ccc(F)cc21 [Compound 1-34, 3-((6-Chloro-7-fluoro-1-(2-(6-fluoro-3,3-dimethylindolin-1-yl)-2-oxoethyl)-2-methyl-1H-indol-3-yl)thio)benzoic acid]
IC50: ≤ 500 nM

Cc1c(Sc2cccc(C(=O)O)c2)c2ccc(Cl)c(F)c2n1CC(=O)N1CCC(Cc2ccc(C(F)(F)F)cc2)C1 (stereo not shown) [Compound 1-78, 3-((6-Chloro-7-fluoro-2-methyl-1-(2-oxo-2-(3-(4-(trifluoromethyl)benzyl)pyrrolidin-1-yl)ethyl)-1H-indol-3-yl)thio)benzoic acid]
IC50: 500 to 3000 nM

Cc1c(Sc2cccc(C(=O)O)c2)c2ccc(Cl)c(F)c2n1CC(=O)N1CCC2(CC1)CC(=O)C2 [Compound 1-18, 3-((6-Chloro-7-fluoro-2-methyl-1-(2-oxo-2-(2-oxo-7-azaspiro[3.5]nonan-7-yl)ethyl)-1H-indol-3-yl)thio)benzoic acid]
IC50: ≤ 500 nM

Cc1c(Sc2cccc(C(=O)O)c2)c2ccc(Cl)c(F)c2n1CC(=O)N(C)C [Compound 1-7, 3-((6-Chloro-1-(2-(dimethylamino)-2-oxoethyl)-7-fluoro-2-methyl-1H-indol-3-yl)thio)benzoic acid]
IC50: ≤ 500 nM

Cc1c(Sc2cccc(C(=O)O)c2F)c2ccc(Cl)c(F)c2n1CC(=O)N1C[C@@H](O)[C@H](F)C1 [Compound 2-66, 3-((6-Chloro-7-fluoro-1-(2-((3R,4R)-3-fluoro-4-hydroxypyrrolidin-1-yl)-2-oxoethyl)-2-methyl-1H-indol-3-yl)thio)-2-fluorobenzoic acid]
IC50: ≤ 500 nM

Cc1c(Sc2cccc(C(=O)O)c2)c2ccc(Cl)c(F)c2n1CC(=O)NCC(F)(F)F [Compound 1-5, 3-((6-Chloro-7-fluoro-2-methyl-1-(2-oxo-2-((2,2,2-trifluoroethyl)amino)ethyl)-1H-indol-3-yl)thio)benzoic acid]
IC50: ≤ 500 nM

Cc1c(Sc2cccc(C(=O)O)c2)c2ccc(Cl)c(F)c2n1CC(=O)N1CCC(OCc2ccc(F)cc2)C1 (stereo not shown) [Compound 1-22, 3-((6-Chloro-7-fluoro-1-(2-(3-((4-fluorobenzyl)oxy)pyrrolidin-1-yl)-2-oxoethyl)-2-methyl-1H-indol-3-yl)thio)benzoic acid]
IC50: ≤ 500 nM

Cc1c(Sc2cccc(C(=O)O)c2)c2ccc(Cl)c(F)c2n1CC(=O)N1CCc2cccnc21 [Compound 1-72, 3-((6-Chloro-1-(2-(2,3-dihydro-1H-pyrrolo[2,3-b]pyridin-1-yl)-2-oxoethyl)-7-fluoro-2-methyl-1H-indol-3-yl)thio)benzoic acid]
IC50: 500 to 3000 nM

Cc1c(Sc2cccc(C(=O)O)c2F)c2ccc(Cl)c(F)c2n1CCN1CC2(CCC2)c2ccccc21 [Compound 2-75, 3-((6-Chloro-7-fluoro-2-methyl-1-(2-(spiro[cyclobutane-1,3′-indolin]-1′-yl)ethyl)-1H-indol-3-yl)thio)-2-fluorobenzoic acid]
IC50: ≤ 500 nM

Cc1c(Sc2cccc(C(=O)O)c2)c2ccc(Cl)c(F)c2n1CC(=O)Nc1cnoc1 [Compound 1-11, 3-((6-Chloro-7-fluoro-1-(2-(isoxazol-4-ylamino)-2-oxoethyl)-2-methyl-1H-indol-3-yl)thio)benzoic acid]
IC50: 500 to 3000 nM

Cc1c(Sc2cccc(C(=O)O)c2)c2ccc(Cl)c(F)c2n1CC(=O)N1CC2(CCCC2)c2ccccc21 [Compound 1-39, 3-((6-Chloro-7-fluoro-2-methyl-1-(2-oxo-2-(spiro[cyclopentane-1,3′-indolin]-1′-yl)ethyl)-1H-indol-3-yl)thio)benzoic acid]
IC50: ≤ 500 nM

Cc1c(Sc2cccc(C(=O)O)c2)c2ccc(Cl)c(F)c2n1CC(=O)NC(C)C [Compound 1-1, 3-((6-Chloro-7-fluoro-1-(2-(isopropylamino)-2-oxoethyl)-2-methyl-1H-indol-3-yl)thio)benzoic acid]
IC50: ≤ 500 nM
